Earlier results, collected in patent US9045800B2, “Methods and compositions for identifying, classifying and monitoring subject having Bcl-2 family inhibitor-resistant tumors and cancers” (AbbVie Inc., priority 2009, dated 2015).

How the values were obtained:
[1] = test system: human cancer cell lines (SCLC and lymphoma cell lines)
[2] = test system: solid tumors; conditions: literature statement, no dose or model printed

CN(C)CC[C@H](CSc1ccccc1)Nc1ccc(S(=O)(=O)NC(=O)c2ccc(N3CCN(Cc4ccccc4-c4ccc(Cl)cc4)CC3)cc2)cc1[N+](=O)[O-] [ABT-737, N-(4-(4-((4′-chloro(1,1′-biphenyl)-2-yl)methyl)piperazin-1-yl)benzoyl)-4-(((1R)-3-(dimethylamino)-1-((phenylsulfanyl)methyl)propyl)amino)-3-nitrobenzenesulfonamide]
potency against a diverse panel of human cancer cell lines [1]: selective potency against SCLC and lymphoma cell lines
effect on solid tumors [2]: induce regression of solid tumors
